# Test results reported in patent US20090012177A1, “Treatment of psychiatric disorders using entacapone, tolcapone and other COMT inhibitor or MB-COMT inhibitor drugs” (priority 2006, published 2009).
# Assays:
# rats = settings: cited from earlier work
# primates = settings: cited from earlier work
# [1] = cited from earlier work
# [2] = tested on: patients with SCZ, BD, Major depression and drug dependency; test: Clinical studies of entacapone in more than 100 patients, evaluated with the CGI scale; format: in vivo, human
# Experimental: This new therapeutic application was determined in patients (Men/women) in single-drug and combination drug therapy. 100 patients were treated at a dose range of 3-10-mg/kg day (50 mg/day-800 mg/day) orally for period of 12 weeks and continued for as long as patients consented averaged 12 months or more.
# The drug efficacy was evaluated using the CGI (Clinical Global Impression) scale. This is a simple tool that is clinically understandable, has proven to be a robust measure of efficacy in drug treatment trial and is highly sensitive to change of clinical status.
# patient with BD = test: Illustrative case report: a case of BD; format: in vivo, human; settings: 400 mg/day, follow up
# Source text: Married person, a hedge fund investment manager with history of BD who has had temporary partial response to antidepressants but mainly resulting in exacerbation symptoms of anxiety, relapse to a depression or cycling to mania. They were intolerant of atypical antipsychotics with potential antidepressant effect (Ziprasidone, Aripiprazole and Quetiapine) either as mono therapy or combined with Lithium or Lamotrigine. […] They reported oil Lithium their “up and down swings were better” but complained their depression was not resolved and they were not happy. They also complained of lack of motivation, trouble with concentration, getting easily overwhelmed with their job, inability to feel joy, overall lack of interest in everything, not knowing what to do with themself, gave up on all hobbies, feeling being all consumed, excessive day time napping, feeling bored especially when their time would be unstructured on week end, loss of their spontaneity and resorting to procrastination, They went to an exotic vacation in Caribbean with their spouse with the hope to bounce back. But as they reported they were not able to enjoy their vacation, complained feeling “being stuck at the low bottom and strongly believed they would never come out of it”. They had started to do Marijuana with the hope to improve their mood. They were preoccupied with getting a gun and shoots themself. […]
# [3] = tested on: patients with drug dependency; test: Illustrative case reports: six cases of drug dependency; format: in vivo, human
# [4] = in vivo; cited from earlier work
# [5] = administered in conjunction; cited from earlier work
# [6] = tested on: prefrontal cortex functions; settings: subjects with the Val/Val genotype; cited from earlier work
compound,measurement,setting,value
Cc1ccc(C(=O)c2cc(O)c(O)c([N+](=O)[O-])c2)cc1 [Tolcapone],extradimensional set shifting performance mediated by prefrontal cortex catecholamines,rats,significantly improved
same,extradimensional set shifting performance mediated by prefrontal cortex catecholamines,primates,significantly improved
same,tolerability,"[1]; human, in vivo",well tolerated drug with no major side effects
same,hepatic failure,[1]; reported in Europe in the early years of use,three cases of hepatic failure
CCN(CC)C(=O)/C(C#N)=C/c1cc(O)c(O)c([N+](=O)[O-])c1 [entacapone],"serious events (physical, neurological or psychiatric adverse effects)","[2]; during the study, 50-800 mg per day",no indication of serious events
same,cases with improved negative and depressive symptoms (CGI scale),"[2]; entacapone (Comtan) 50-800 mg per day, more than 100 patients",more than 60%
same,effect of discontinuation of treatment on clinical condition,[2]; in comparison to the pre-treatment status,did not cause any worsening of the clinical condition
same,duration of maintained effect in BD,patient with BD,12 months
same,"duration of abstinence, Case #2","[3]; cocaine and alcohol dependant, relapsed when entacapone stopped",10 months
same,"duration of sobriety, Case #3",[3]; increased to 400 then 600 mg/day,14 months
same,blood brain barrier penetration relative to tolcapone,[4],half that of about tolcapone
same,common side effects,"[1]; human, in vivo","gastrointestinal problems, including diarrhea, nausea and abdominal pains"
same,safety profile relative to tolcapone,"[1]; human, in vivo",much better safety profile
same,most frequent undesirable effects,"[1]; related to increased effects of L-DOPA, beginning of treatment",involuntary movements (dyskinesias)
same,bioavailability of dopaminergic agents such as L-DOPA,[5],increases the bioavailability
CC(N)Cc1ccccc1 (stereo not shown) [amphetamine],efficiency of prefrontal cortex functions in working memory tasks,[6],enhanced
